Experimental data reported in patent US11000033B2, “Ketone or oxime compound, and herbicide” (NISSAN CHEMICAL CORPORATION, priority 2014, dated 2021).

How the values were obtained:
Assay type in all cases: in vivo
[1] = test system: corn; experiment: Test Example 4: effect on crop by soil treatment (symbol c); conditions: application herbicide amount 320 g/ha
In short: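 Sterilized diluvial soil, spot sowing, ~1.5 cm soil cover; greenhouse 25–30° C.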

[2] = test system: Echinochloa oryzacola Vasing.; experiment: Test Example 1: herbicidal activity, application before weed generation in submerged conditions (symbol A); conditions: application herbicide amount 320 g/ha
In short: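 Weed control was rated three weeks after treatment on a 0–5 scale, from 5% or lower up to 90% or more. Pre-emergence water-surface application of diluted emulsion at a predetermined rate was made on the day of sowing, in flooded (4 cm water) pots containing rice seedlings, kept at 25–30 °C under glass.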

[3] = test system: Alopecurus myosuroides; experiment: Test Example 5: herbicidal effect by foliage application, plastic box (symbol J); conditions: 320 g/ha, 3 weeks after application
In short: (§1)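 Post-emergence spray; diluvial soil (sterilized), ~1.5 cm seed cover; greenhouse 25–30° C; 14-day-old plants; water-diluted emulsion at predetermined dose; visual score at 3 wk post-treatment.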

[4] = test system: Stellaria media; experiment: Test Example 4: herbicidal effect by soil treatment (symbol P); conditions: application herbicide amount 320 g/ha
In short: (§2)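 Seeds were sown in sterilized diluvial soil, covered with about 1.5 cm of soil, and the soil surface was sprayed with a water-diluted emulsion of the compound at a predetermined rate. Plants grew in a greenhouse at 25° C. to 30° C.; effects were scored visually 3 weeks after application.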

[5] = test system: beet; experiment: Test Example 5: effect on crop by foliage application, plastic box (symbol f); conditions: 320 g/ha, 3 weeks after application
In short: (§3)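 Crop and weed seeds sown in spots in sterilized diluvial soil in plastic boxes and covered with about 1.5 cm soil. Plants raised in a greenhouse at 25° C. to 30° C. for foliar application.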

[6] = test system: Veronica persica; experiment: Test Example 4: herbicidal effect by soil treatment (symbol R); conditions: application herbicide amount 320 g/ha
In short: as §2

[7] = test system: Abutilon theophrasti; experiment: Test Example 5: herbicidal effect by foliage application, plastic box (symbol M); conditions: 320 g/ha, 3 weeks after application
In short: as §1

[8] = test system: rice plant; experiment: Test Example 5: effect on crop by foliage application, plastic box (symbol b); conditions: 320 g/ha, 3 weeks after application
In short: as §3

[9] = test system: beet; experiment: Test Example 4: effect on crop by soil treatment (symbol f); conditions: application herbicide amount 320 g/ha
In short: (§4)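 Plants grew in a 25° C. to 30° C. greenhouse after spot-sowing of seeds, including beet, rapeseed, wheat and rice, into sterilized diluvial soil under roughly 1.5 cm of cover soil.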

[10] = test system: wheat; experiment: Test Example 5: effect on crop by foliage application, plastic box (symbol e); conditions: 320 g/ha, 3 weeks after application
In short: as §3

[11] = test system: transplanted rice plant; experiment: Test Example 1: effect on crop, application before weed generation in submerged conditions (symbol a); conditions: application herbicide amount 320 g/ha
In short: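 Rice at 2.5 leaf stage transplanted into submerged soil (4 cm depth) sown with three weed species; herbicide applied before weed emergence.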

[12] = test system: Galium spurium; experiment: Test Example 5: herbicidal effect by foliage application, plastic box (symbol Q); conditions: 320 g/ha, 3 weeks after application
In short: as §1

[13] = test system: soybean; experiment: Test Example 4: effect on crop by soil treatment (symbol d); conditions: application herbicide amount 320 g/ha
In short: as §4

[14] = test system: soybean; experiment: Test Example 5: effect on crop by foliage application, plastic box (symbol d); conditions: 320 g/ha, 3 weeks after application
In short: as §3

[15] = test system: Echinochloa crus-galli var. crus-galli; experiment: Test Example 3: herbicidal effect by foliage application, Wagner pot (symbol H); conditions: application herbicide amount 320 g/ha
In short: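 Plants sown in submerged alluvial soil (water depth 0.1–0.5 cm) in a 25–30 °C greenhouse and grown 14 days. An emulsion of the compound diluted in water to a set herbicide amount was sprayed uniformly on foliage. Effect on each plant scored 3 weeks after application.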

SMILES	Effect on crop grade, c: corn [1]	Herbicidal effect grade, A: Echinochloa oryzacola Vasing. [2]	J: Alopecurus myosuroides, herbicidal effect (criteria of Test Example 1) [3]	Herbicidal effect grade, P: Stellaria media [4]	f: beet, effect on crop (criteria of Test Example 1) [5]	Herbicidal effect grade, R: Veronica persica [6]	M: Abutilon theophrasti, herbicidal effect (criteria of Test Example 1) [7]	b: directly sowed rice plant, effect on crop (criteria of Test Example 1) [8]	Effect on crop grade, f: beet [9]	e: wheat, effect on crop (criteria of Test Example 1) [10]	Effect grade on crop, a: transplanted rice plant [11]	Q: Galium spurium, herbicidal effect (criteria of Test Example 1) [12]	Effect on crop grade, d: soybean [13]	d: soybean, effect on crop (criteria of Test Example 1) [14]	herbicidal effect on H (Echinochloa crus-galli var. crus-galli), grade 0-5 [15]	c: corn, effect on crop grade [1]	P: Stellaria media, herbicidal effect grade [4]	R: Veronica persica, herbicidal effect grade [6]	f: beet, effect on crop grade [9]	d: soybean, effect on crop grade [13]	other results
CON=C(C)CC1CC(OC(=O)N2CCCC2)=C(c2c(C)cc(C)cc2OC)C1=O (stereo not drawn) [6-110]	0 (Herbicidal ratio of 5% or lower (almost no effect))	5 (Herbicidal ratio of 90% or more (almost completely withered))	5 (Herbicidal ratio of 90% or more (almost completely withered))	0 (Herbicidal ratio of 5% or lower (almost no effect))	0 (Herbicidal ratio of 5% or lower (almost no effect))	0 (Herbicidal ratio of 5% or lower (almost no effect))	4 (Herbicidal ratio of 70% or higher and lower than 90%)	5 (Herbicidal ratio of 90% or more (almost completely withered))	0 (Herbicidal ratio of 5% or lower (almost no effect))	4 (Herbicidal ratio of 70% or higher and lower than 90%)	5 (Herbicidal ratio of 90% or more (almost completely withered))	3 (Herbicidal ratio of 40% or higher and lower than 70%)	0 (Herbicidal ratio of 5% or lower (almost no effect))	2 (Herbicidal ratio of 20% or higher and lower than 40%)	5 (Herbicidal ratio of 90% or more (almost completely withered))	–	–	–	–	–	–
CC#Cc1cc(C)c(C2=C(O)CC(CC(C)=O)C2=O)c(C)c1 (stereo not drawn) [7-010]	5 (Herbicidal ratio of 90% or more (almost completely withered))	5 (Herbicidal ratio of 90% or more (almost completely withered))	5 (Herbicidal ratio of 90% or more (almost completely withered))	0 (Herbicidal ratio of 5% or lower (almost no effect))	0 (Herbicidal ratio of 5% or lower (almost no effect))	3 (Herbicidal ratio of 40% or higher and lower than 70%)	3 (Herbicidal ratio of 40% or higher and lower than 70%)	5 (Herbicidal ratio of 90% or more (almost completely withered))	0 (Herbicidal ratio of 5% or lower (almost no effect))	5 (Herbicidal ratio of 90% or more (almost completely withered))	5 (Herbicidal ratio of 90% or more (almost completely withered))	0 (Herbicidal ratio of 5% or lower (almost no effect))	2 (Herbicidal ratio of 20% or higher and lower than 40%)	3 (Herbicidal ratio of 40% or higher and lower than 70%)	5 (Herbicidal ratio of 90% or more (almost completely withered))	–	–	–	–	–	–
CCc1cc(Br)cc(C)c1C1=C(O)CC(CC(C)=O)C1=O (stereo not drawn) [7-003]	0 (Herbicidal ratio of 5% or lower (almost no effect))	5 (Herbicidal ratio of 90% or more (almost completely withered))	5 (Herbicidal ratio of 90% or more (almost completely withered))	0 (Herbicidal ratio of 5% or lower (almost no effect))	0 (Herbicidal ratio of 5% or lower (almost no effect))	0 (Herbicidal ratio of 5% or lower (almost no effect))	0 (Herbicidal ratio of 5% or lower (almost no effect))	5 (Herbicidal ratio of 90% or more (almost completely withered))	0 (Herbicidal ratio of 5% or lower (almost no effect))	0 (Herbicidal ratio of 5% or lower (almost no effect))	0 (Herbicidal ratio of 5% or lower (almost no effect))	0 (Herbicidal ratio of 5% or lower (almost no effect))	0 (Herbicidal ratio of 5% or lower (almost no effect))	2 (Herbicidal ratio of 20% or higher and lower than 40%)	5 (Herbicidal ratio of 90% or more (almost completely withered))	–	–	–	–	–	–
CON=C(C)CC1CC(O)=C(c2c(C)cc(Oc3ccccc3)cc2C)C1=O (stereo not drawn) [6-052]	–	4 (Herbicidal ratio of 70% or higher and lower than 90%)	–	–	–	–	–	–	–	–	3 (Herbicidal ratio of 40% or higher and lower than 70%)	–	–	–	5 (Herbicidal ratio of 90% or more (almost completely withered))	0 (Herbicidal ratio of 5% or lower (almost no effect))	2 (Herbicidal ratio of 20% or higher and lower than 40%)	0 (Herbicidal ratio of 5% or lower (almost no effect))	0 (Herbicidal ratio of 5% or lower (almost no effect))	0 (Herbicidal ratio of 5% or lower (almost no effect))	J: Alopecurus myosuroides, herbicidal effect grade [3]: 4 (Herbicidal ratio of 70% or higher and lower than 90%); f: beet, effect on crop grade [5]: 0 (Herbicidal ratio of 5% or lower (almost no effect)); M: Abutilon theophrasti, herbicidal effect grade [7]: 0 (Herbicidal ratio of 5% or lower (almost no effect)); b: directly sowed rice plant, effect on crop grade [8]: 5 (Herbicidal ratio of 90% or more (almost completely withered)); e: wheat, effect on crop grade [10]: 0 (Herbicidal ratio of 5% or lower (almost no effect)); Q: Galium spurium, herbicidal effect grade [12]: 0 (Herbicidal ratio of 5% or lower (almost no effect)); d: soybean, effect on crop grade [14]: 0 (Herbicidal ratio of 5% or lower (almost no effect))
CON=C(C)CC1CC(OC(=O)N(C)C)=C(c2c(C)cc(-c3ccc(Cl)cc3)cc2C)C1=O (mixture of isomers) [6-063]	–	5 (Herbicidal ratio of 90% or more (almost completely withered))	3 (Herbicidal ratio of 40% or higher and lower than 70%)	–	0 (Herbicidal ratio of 5% or lower (almost no effect))	–	2 (Herbicidal ratio of 20% or higher and lower than 40%)	3 (Herbicidal ratio of 40% or higher and lower than 70%)	–	4 (Herbicidal ratio of 70% or higher and lower than 90%)	4 (Herbicidal ratio of 70% or higher and lower than 90%)	3 (Herbicidal ratio of 40% or higher and lower than 70%)	–	0 (Herbicidal ratio of 5% or lower (almost no effect))	4 (Herbicidal ratio of 70% or higher and lower than 90%)	0 (Herbicidal ratio of 5% or lower (almost no effect))	0 (Herbicidal ratio of 5% or lower (almost no effect))	0 (Herbicidal ratio of 5% or lower (almost no effect))	0 (Herbicidal ratio of 5% or lower (almost no effect))	0 (Herbicidal ratio of 5% or lower (almost no effect))	–
